The assay deals with T1, Peroxisome proliferator-activated receptor gamma (Homo sapiens, UniProt P37231).
T1 sequence (P37231 whole entry): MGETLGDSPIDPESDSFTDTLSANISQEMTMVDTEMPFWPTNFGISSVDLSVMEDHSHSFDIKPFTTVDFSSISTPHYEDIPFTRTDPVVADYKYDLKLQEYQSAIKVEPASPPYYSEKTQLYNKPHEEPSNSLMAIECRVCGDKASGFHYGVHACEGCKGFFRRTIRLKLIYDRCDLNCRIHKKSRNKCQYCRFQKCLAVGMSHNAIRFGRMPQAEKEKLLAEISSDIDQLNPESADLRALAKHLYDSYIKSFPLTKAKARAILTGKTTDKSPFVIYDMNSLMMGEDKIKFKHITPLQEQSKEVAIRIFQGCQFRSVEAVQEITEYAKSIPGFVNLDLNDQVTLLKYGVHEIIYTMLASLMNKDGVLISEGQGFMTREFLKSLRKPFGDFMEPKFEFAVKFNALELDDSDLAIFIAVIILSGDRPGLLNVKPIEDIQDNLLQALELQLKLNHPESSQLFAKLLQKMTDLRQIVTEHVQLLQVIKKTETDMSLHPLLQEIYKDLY
Briefly: PPARg ligand-binding domain binders, dose response, PPARg partial agonist project, biochemical, fluorescence polarization, PolarScreen (AID 504453).

For orientation: IC50 means the concentration at which inhibition is half-maximal.

Turning to `Cc1ccc2nc(N3C(=O)C(=O)C(C(=O)c4ccc(C)o4)C3c3ccco3)sc2c1` (centres undefined), the IC50 is 22 µM. As for `COc1ccc2nc(N3C(=O)C(=O)C(C(=O)c4ccco4)C3c3ccc(C)o3)sc2c1` (centres undefined), the IC50 amounted to 5 µM. `CCOc1ccc2nc(N3C(=O)C(=O)C(C(=O)c4ccco4)C3c3ccco3)sc2c1` (centres undefined) [1-(6-ethoxy-1,3-benzothiazol-2-yl)-2-(2-furanyl)-3-[2-furanyl(oxo)methyl]-4-hydroxy-2H-pyrrol-5-one] returned an IC50 of 3 µM.

With `Cc1ccc2nc(N3C(=O)C(=O)C(C(=O)c4ccco4)C3c3ccc(C)o3)sc2c1` (centres undefined) [3-[2-furanyl(oxo)methyl]-4-hydroxy-1-(6-methyl-1,3-benzothiazol-2-yl)-2-(5-methyl-2-furanyl)-2H-pyrrol-5-one;oxalic acid], the IC50 was 30 µM.

Values taken from BindingDB's records for doi:10.7270/Q2KP80MW (The Scripps Research Institute Molecular Screening Center, 2011).
